These results are taken from US20030004172A1, “Fused pyrimidinone matrix metalloproteinase inhibitors” (priority 2001, published 2003).

pIC50: −log10 of the molar value.

The target in this test is MMP-13CD (catalytic domain of collagenase-3) (Homo sapiens, UniProt P45452). The test is described as follows: Thiopeptolide substrate hydrolysis inhibition assay, MMP-13CD. The test is classed as biochemical. Particulars: Table I; thiopeptolide substrate, HEPES pH 7.0, 22° C.; read-out: MMP-13CD IC50. The source says: Thiopeptolide substrates show virtually no decomposition or hydrolysis at or below neutral pH in the absence of a matrix metalloproteinase enzyme.

Regarding `C=CCCOC(=O)c1cc2c(=O)n(Cc3ccccc3)c(=O)n(C)c2s1` [Example 208, 3-Benzyl-1-methyl-2,4-dioxo-1,2,3,4-tetrahydro-thieno[2,3-d]pyrimidine-6-carboxylic acid but-3-enyl ester], the pIC50 is 7.00.

Take `Cn1c(=O)n(Cc2ccccc2)c(=O)c2cc(C(=O)OCCC#N)sc21` [Example 209, 3-Benzyl-1-methyl-2,4-dioxo-1,2,3,4-tetrahydro-thieno[2,3-d]pyrimidine-6-carboxylic acid 2-cyano-ethyl ester]: the pIC50 is < 4.00.

`CCOCCOC(=O)c1cc2c(=O)n(Cc3ccccc3)c(=O)n(C)c2s1` [Example 210, 3-Benzyl-1-methyl-2,4-dioxo-1,2,3,4-tetrahydro-thieno[2,3-d]pyrimidine-6-carboxylic acid 2-ethoxy-ethyl ester]: the pIC50 is 5.92.

Consider `Cn1c(=O)n(Cc2ccccc2)c(=O)c2cc(C(=O)OC(C#N)c3ccccc3)sc21` (stereo not drawn) [Example 211, 3-Benzyl-1-methyl-2,4-dioxo-1,2,3,4-tetrahydro-thieno[2,3-d]pyrimidine-6-carboxylic acid cyano-phenyl-methyl ester], for which the pIC50 was 5.68.

Regarding `Cn1c(=O)n(Cc2ccccc2)c(=O)c2cc(C(=O)NCc3ccc(C(F)(F)F)cc3)sc21` [Example 212, 3-Benzyl-1-methyl-2,4-dioxo-1,2,3,4-tetrahydro-thieno[2,3-d]pyrimidine-6-carboxylic acid 4-trifluoromethyl-benzylamide], the negative-log IC50 (pIC50) is 6.17.

Turning to `Cc1ccc(CNC(=O)c2cc3c(=O)n(Cc4ccccc4)c(=O)n(C)c3s2)cc1` [Example 213, 3-Benzyl-1-methyl-2,4-dioxo-1,2,3,4-tetrahydro-thieno[2,3-d]pyrimidine-6-carboxylic acid 4-methyl-benzylamide], the pIC50 was 5.77.

For the compound `Cn1c(=O)n(Cc2ccccc2)c(=O)c2cc(C(=O)NCCc3ccccc3)sc21` [Example 214, 3-Benzyl-1-methyl-2,4-dioxo-1,2,3,4-tetrahydro-thieno[2,3-d]pyrimidine-6-carboxylic acid phenethyl-amide], the negative logarithm of the IC50 (pIC50) was 4.70.

Regarding `Cn1c(=O)n(Cc2ccccc2)c(=O)c2cc(C(=O)NC3CC3)sc21` [Example 215, 3-Benzyl-1-methyl-2,4-dioxo-1,2,3,4-tetrahydro-thieno[2,3-d]pyrimidine-6-carboxylic acid cyclopropylamide], the negative-log IC50 (pIC50) was 4.62.

On to `COc1ccc(CNC(=O)c2cc3c(=O)[nH]c(=O)n(C)c3s2)cc1` [Example 216], for which the negative logarithm of the IC50 (pIC50) is 4.74.

With `COc1cccc(CNC(=O)c2cc3c(=O)[nH]c(=O)n(C)c3s2)c1` [Example 218], the pIC50 was 4.74.

Turning to `COc1cc(CNC(=O)c2cc3c(=O)[nH]c(=O)n(C)c3s2)ccn1` [Example 219, 1-methyl-2,4-dioxo-1,2,3,4-tetrahydro-thieno[2,3-d]pyrimidine-6-carboxylic acid (2-methoxy-pyridin-4-ylmethyl)-amide], the negative logarithm of the IC50 (pIC50) is 4.77.

On to `COc1ccc(CNC(=O)c2cc3c(=O)n(Cc4ccc(-c5noc(=O)[nH]5)cc4)c(=O)n(C)c3s2)cc1` [Example 221, 1-Methyl-2,4-dioxo-3-[4-(5-oxo-4,5-dihydro-1,2,4-oxadiazol-3-yl)-benzyl]-1,2,3,4-tetrahydro-thieno[2,3-d]pyrimidine-6-carboxylic acid 4-methoxy-benzylamide], for which the pIC50 was 8.34.

Take `COc1ccc(CNC(=O)c2cc3c(=O)n(Cc4ccc(-c5noc(=S)[nH]5)cc4)c(=O)n(C)c3s2)cc1` [Example 222, 1-Methyl-2,4-dioxo-3-[4-(5-thioxo-4,5-dihydro-1,2,4-oxadiazol-3-yl)-benzyl]-1,2,3,4-tetrahydro-thieno[2,3-d]pyrimidine-6-carboxylic acid 4-methoxy-benzylamide]: the pIC50 was 8.38.

`COc1ccc(CNC(=O)c2cc3c(=O)n(C/C=C/C(=O)O)c(=O)n(C)c3s2)cc1` [Example 226, (E)-4-[6-(4-Methoxy-benzylcarbamoyl)-1-methyl-2,4-dioxo-1,4-dihydro-2H-thieno[2,3-d]pyrimidin-3-yl]-but-2-enoic acid]: the negative-log IC50 (pIC50) was 5.31.

On to `COc1ccc(CNC(=O)c2cc3c(=O)n(CCS(=O)(=O)c4ccccc4)c(=O)n(C)c3s2)cc1` [Example 227, 3-(2-Benzenesulfonyl-ethyl)-1-methyl-2,4-dioxo-1,2,3,4-tetrahydro-thieno[2,3-d]pyrimidine-6-carboxylic acid 4-methoxy-benzylamide], for which the negative-log IC50 (pIC50) was 5.42.

For the compound `COCN1C(=O)c2ccc(Cn3c(=O)c4cc(C(=O)NCc5ccc(OC)cc5)sc4n(C)c3=O)cc2S1(=O)=O` [Example 229, 3-(2-Methoxymethyl-1,1,3-trioxo-2,3-dihydro-1H-1l^6l-1,2-benzisothiazol-6-ylmethyl)-1-methyl-2,4-dioxo-1,2,3,4-tetrahydro-thieno[2,3-d]pyrimidine-6-carboxylic acid 4-methoxy-benzylamide], the pIC50 is 6.17.

As for `CCCCCC#CCn1c(=O)c2cc(C(=O)NCc3ccc(OC)cc3)sc2n(C)c1=O` [Example 230, 1-Methyl-3-oct-2-ynyl-2,4-dioxo-1,2,3,4-tetrahydro-thieno[2,3-d]pyrimidine-6-carboxylic acid 4-methoxy-benzylamide], the pIC50 is 7.11.

Turning to `COc1ccc(CNC(=O)c2cc3c(=O)n(CCNS(=O)(=O)c4ccc(Cl)cc4)c(=O)n(C)c3s2)cc1` [Example 231, 3-[2-(4-Chloro-benzenesulfonylamino)-ethyl]-1-methyl-2,4-dioxo-1,2,3,4-tetrahydro-thieno[2,3-d]pyrimidine-6-carboxylic acid 4-methoxy-benzylamide], the pIC50 was 5.54.

Turning to `COc1cccc(CNC(=O)c2cc3c(=O)n(CCOc4ccc(Br)cc4)c(=O)n(C)c3s2)c1` [Example 233, 3-[2-(4-Bromo-phenoxy)-ethyl]-1-methyl-2,4-dioxo-1,2,3,4-tetrahydro-thieno[2,3-d]pyrimidine-6-carboxylic acid 3-methoxy-benzylamide], the pIC50 was 7.16.

As for `COc1ccc(CNC(=O)c2cc3c(=O)n(CCOc4ccc(F)cc4)c(=O)n(C)c3s2)cc1` [Example 234, 3-[2-(4-Fluoro-phenoxy)-ethyl]-1-methyl-2,4-dioxo-1,2,3,4-tetrahydro-thieno[2,3-d]pyrimidine-6-carboxylic acid 4-methoxy-benzylamide], the negative logarithm of the IC50 (pIC50) was 6.82.

`COc1ccc(CNC(=O)c2cc3c(=O)n(CCN)c(=O)n(C)c3s2)cc1` [Example 235, 3-(2-aminoethyl)-1-methyl-2,4-dioxo-1,2,3,4-tetrahydro-thieno[2,3-d]pyrimidine-6-carboxylic acid 4-methoxy-benzylamide]: the pIC50 is 4.74.

Take `COc1cccc(CNC(=O)c2cc3c(=O)n(CCOc4ccc(F)cc4)c(=O)n(C)c3s2)c1` [Example 236, 3-[2-(4-fluoro-phenoxy)-ethyl]-1-methyl-2,4-dioxo-1,2,3,4-tetrahydro-thieno[2,3-d]pyrimidine-6-carboxylic acid 3-methoxy-benzylamide]: the negative-log IC50 (pIC50) was 7.31.

For the compound `COc1cccc(CNC(=O)c2cc3c(=O)n(CCOc4ccc(Cl)cc4)c(=O)n(C)c3s2)c1` [Example 237, 3-[2-(4-chloro-phenoxy)-ethyl]-1-methyl-2,4-dioxo-1,2,3,4-tetrahydro-thieno[2,3-d]pyrimidine-6-carboxylic acid 3-methoxy-benzylamide], the pIC50 is 7.03.

Turning to `COC(=O)c1ccc(Cn2c(=O)c3cc(C(=O)NCc4ccc(OC)cc4)sc3n(C)c2=O)cc1C` [Example 238, 4-[6-(4-Methoxy-benzylcarbamoyl)-1-methyl-2,4-dioxo-1,4-dihydro-2H-thieno[2,3-d]pyrimidin-3-ylmethyl]-2-methyl-benzoic acid methyl ester], the negative logarithm of the IC50 (pIC50) was 7.26.

Consider `COC(=O)c1ccc(Cn2c(=O)c3cc(C(=O)NCc4ccc(OC)cc4)sc3n(C)c2=O)cc1` [Example 239, 4-[6-(4-Methoxy-benzylcarbamoyl)-1-methyl-2,4-dioxo-1,4-dihydro-2H-thieno[2,3-d]pyrimidin-3-ylmethyl]-benzoic acid methyl ester], for which the negative-log IC50 (pIC50) is 7.23.

Consider `COC(=O)c1ccc(Cn2c(=O)c3cc(C(=O)NCc4cccc(OC)c4)sc3n(C)c2=O)cc1OC` [Example 240, 2-Methoxy-4-[6-(3-methoxy-benzylcarbamoyl)-1-methyl-2,4-dioxo-1,4-dihydro-2H-thieno[2,3-d]pyrimidin-3-ylmethyl]-benzoic acid methyl ester], for which the negative logarithm of the IC50 (pIC50) is 6.74.

With `COC(=O)c1ccc(Cn2c(=O)c3cc(C(=O)NCc4cccc(OC)c4)sc3n(C)c2=O)cc1C` [Example 241, 4-[6-(3-Methoxy-benzylcarbamoyl)-1-methyl-2,4-dioxo-1,4-dihydro-2H-thieno[2,3-d]pyrimidin-3-ylmethyl]-2-methyl-benzoic acid methyl ester], the pIC50 was 7.71.

Turning to `COc1ccc(CNC(=O)c2cc3c(=O)n(CCC(=O)c4ccccc4)c(=O)n(C)c3s2)cc1` [Example 242, 1-Methyl-2,4-dioxo-3-(3-oxo-3-phenyl-propyl)-1,2,3,4-tetrahydro-thieno[2,3-d]pyrimidine-6-carboxylic acid 4-methoxy-benzylamide], the pIC50 is 5.52.

On to `COc1cccc(CNC(=O)c2cc3c(=O)n(CCC(=O)c4ccccc4)c(=O)n(C)c3s2)c1` [Example 243, 1-Methyl-2,4-dioxo-3-(3-oxo-3-phenyl-propyl)-1,2,3,4-tetrahydro-thieno[2,3-d]pyrimidine-6-carboxylic acid 3-methoxy-benzylamide], for which the negative-log IC50 (pIC50) was 5.85.

As to `COc1cccc(CNC(=O)c2cc3c(=O)n(CCS(=O)(=O)c4cccc(C(F)(F)F)c4)c(=O)n(C)c3s2)c1` [Example 244, 1-Methyl-2,4-dioxo-3-[2-(3-trifluoromethyl-benzenesulfonyl)-ethyl]-1,2,3,4-tetrahydro-thieno[2,3-d]pyrimidine-6-carboxylic acid 3-methoxy-benzylamide], the negative-log IC50 (pIC50) was 5.90.

One may read the pIC50 as the negative decadic logarithm of the IC50, by convention in mol/L.
